The test system of one experiment is WT RyR2. The experiment can be described thus: Time-lapse [Ca2+]ER measurement, HEK293 cells expressing WT RyR2. The class given is cell-based. As to conditions: for ER luminal [Ca2+] change (F/F0): Fig. 5D source data, single replicates. As to the method: (§1) HEK293 cells stably expressing R-CEPIA1er and RyRs (WT RyR1, RyR1-W881A, RyR1-W995A, RyR1-R2163C, and WT RyR2)[26],[27] were used in this study. Briefly, the cells were seeded at a density of 2 × 10⁴ cells/well in a 96-well black, clear-bottom plate (Corning). Doxycycline (2 µg/mL) was added 12 h after seeding, and the medium was replaced 24 h later with HEPES-buffered Krebs solution (5 mM HEPES, pH 7.4; 140 mM NaCl; 5 mM KCl; 2 mM CaCl₂; 1 mM MgCl₂; and 11 mM glucose). Fluorescence measurements were conducted using a FlexStation 3 fluorometer (Molecular Devices) at 37 °C. The R-CEPIA1er was excited at 560 nm, emitted at 610 nm, and captured every 10 seconds over 300 seconds. Different concentrations of compound, dissolved in buffer containing 1% DMSO, were added 100 s after recording began. The fluorescence changes (F/F₀) were calculated by dividing the average fluorescence of the last 100 seconds (F) by that of the first 100 seconds (F₀). All measurements were performed in triplicate.

Another experiment has as its target T1, RyR1 W995A (Oryctolagus cuniculus, UniProt P11716, W996A).
T1 construct: expressed in transfected cells
As to the kind of experiment: Time-lapse [Ca2+]ER measurement, HEK293 cells expressing RyR1 W995A. The class given is cell-based. As to conditions: 4 mM caffeine; for ER luminal [Ca2+] change (F/F0): Fig. 5H source data, RyR1-W995A, single replicates. The method, then: as §1

Where “and” joins values, the source holds several entries; their conditions need not be identical. Identical values can stand only once.

As to `O=C(C[C@@H](NCCCO)C(=O)O)Nc1ccc2ccccc2c1` [RI-2], the “ER luminal [Ca2+] change (F/F0)” value with WT RyR2 (RI-2 0.1 uM) is 1.012 and 0.991 and 0.9966; in the experiment on WT RyR2 (RI-2 0.3 uM) it was 1.053 and 1.031 and 0.9893; in the experiment with WT RyR2 (RI-2 1 uM), 1.071 and 0.9532 and 1.019; in the experiment on WT RyR2 (RI-2 3 uM), 0.989 and 1.026 and 1.009; in the experiment with WT RyR2 (RI-2 10 uM) it was 1.0308 and 1.04 and 0.9817; in the experiment with WT RyR2 (RI-2 30 uM), 1.051 and 0.9858 and 1.027. Also, the “ER luminal [Ca2+] change (F/F0)” value in the experiment with WT RyR2 (RI-2 100 uM) was 1.1169 and 1.011 and 1.1; on RyR1 W995A (RI-2 0.1 uM) it was 1.018 and 1 and 0.9822; at RyR1 W995A (RI-2 0.3 uM), 1.035 and 1.023 and 0.9731; at RyR1 W995A (RI-2 1 uM), 1.011 and 1.046 and 0.9965; at RyR1 W995A (RI-2 3 uM) it was 1.0547 and 1.017 and 1.01; on RyR1 W995A (RI-2 10 uM), 1.05 and 1.027 and 0.98. The “ER luminal [Ca2+] change (F/F0)” value on RyR1 W995A (RI-2 30 uM) was 1.073 and 0.9504 and 1.033; on RyR1 W995A (RI-2 100 uM), 0.9659 and 1.079 and 1.107. The “effect on ER luminal [Ca2+]” value in the experiment with WT RyR2 (dose-dependent [Ca2+]ER measurements) is given as “no significant effect”. Further, the “inhibitory effect in time-lapse ER Ca2+ measurements” value on RyR1 W995A (RyR1 W995A) is “completely lost”.
